{"source": "patent US8211646B1", "about": "“Methods of treating ovarian cancer by modulating SnoN” (University of South Florida, priority 2008, dated 2012)", "type_in_all_cases": "cell-based", "key": {"SnoN RNA": {"test_system": "SnoN RNA", "experiment": "qPCR of SnoN RNA levels in ovarian cell lines", "settings": "5 μM As2O3, 18 hours", "procedure": "(§1) RNA was isolated using the RNeasy Mini Kit (Qiagen, Valencia, Calif.) from normal, benign, stage I-IV ovarian patient samples and quantitative PCR was performed. A one-step RT-PCR Taqman master mix from Applied Biosystems (Foster City, Calif.) and primers for genes in the 3q26.2 amplicon were obtained using Genebank sequences as well as from Assays on Demand (Hs00180524_m1 (SnoN/SkiL)), with the following primers and probe sets.\n(§2) Primers/probe sequences for SnoN (Hs00180524_m1), TGFβRII (Hs00234253_m1), and LC3 (Hs00261291_m1) were obtained from Applied Biosystems (Assays by Design).\nmRNA levels were determined using the One-Step-Plus Applied Biosystems Detection System or ABI PRISM 7700 Sequence Detection System using β-actin as a reference. PCR conditions were as follows: stage I: 48° C. for 30 min; stage II: 95° C. for 10 min; stage III: [40 cycles] 95° C. for 15 s followed by 60° C. for 1 min Using the correlative method, RNA-fold change in expression was calculated as Ct of gene—Ct of β-actin to generate ΔCt from which ΔCt of the normal sample was subtracted. These values were then converted to log2 values.\nThe clinical inhibitors As2O3, geldanamycin (17-AAG) (dissolved in dimethylsulfoxide [DMSO]), and MG132 (dissolved in DMSO) were obtained from Sigma-Aldrich (St. Louis, Mo.), Fisher Scientific (Pittsburgh, Pa.), and Alexis Biochemicals (Farmingdale, N.Y.), respectively. N-acetyl-L-cysteine (NAC; dissolved in media) and Bortezomib (PS-341; dissolved in DMSO) were obtained from Fisher Scientific. 3-Methyladenine (3-MA; dissolved in media) was obtained from MP Biomedicals (Solon, Ohio). Tiron (4,5-Dihydroxy-1,3-benzenedisulfonic acid, dissolved in media) was obtained from Fisher Scientific. zVAD-fmk (dissolved in DMSO) and bafilomycin A (dissolved in DMSO) was obtained from Axxora LLC (San Diego, Calif.). […] After the appropriate incubation time (6 or 18 hours), cell lysates were collected, protein quantified, and SDS-PAGE/western analysis was performed. In addition, for selected studies, RNA was isolated, quantified, and used for qPCR analysis."}, "[1]": {"test_system": "EVI1 forms (MDS1/EVI1, EVI1, EVI1^Del190-515)", "procedure": "Proteins were resolved on an 8%, 12%, or 15% SDS-PAGE gel (as appropriate) and electrophoretically transferred to polyvinyldifluoride (PVDF) membranes. After blocking with 5% (w/v) milk in TBST (Tris-Buffered Saline containing 0.1% Tween-20) for one hour at room temperature, membranes were incubated with primary antibodies (at appropriate dilution) overnight at 4° C., followed by extensive washing and incubation for 1 hour with the appropriate horseradish peroxidase-conjugated secondary antibodies (BioRad, Hercules, Calif.). Blots were washed extensively. A rabbit polyclonal EVI1 antibody was obtained (1:3000 dilution, St. Jude's Children's Hospital, Memphis, Tenn.). SnoN rabbit polyclonal (1:1000 dilution), PML, and p21 SMURF2 rabbit polyclonal (1:500 dilution), MRP1 mouse monoclonal (1:500 dilution) and GAPDH mouse monoclonal (1:250 dilution) antibodies were obtained from Santa Cruz Biotechnology (Santa Cruz, Calif.). TGFβRII rabbit polyclonal (1:1000 dilution) antibody was obtained from Strategic Diagnostics (Newark, Del.). Smad2/3 rabbit polyclonal (1:1000 dilution), Beclin-1 rabbit polyclonal (1:1000 dilution), AKT rabbit polyclonal (1:1000 dilution), TAK1 rabbit polyclonal (1:1000 dilution), PARP rabbit polyclonal (1:1000 dilution), Beclin-1 rabbit polyclonal (1:1000 dilution), caspase-3 rabbit polyclonal (1:1000) which detects the pro-caspase form, and ATG5 rabbit polyclonal (1:1000 dilution), LC3-II rabbit polyclonal (1:1000 dilution) antibodies were obtained from Cell Signaling Technology (Danvers, Mass.). The HSP27 mouse monoclonal (1:1000 dilution) antibody was obtained from Stressgen (Ann Arbor, Mich.). Blots were developed using chemiluminescence substrates (Amersham Piscataway, N.J. or BioRad, Hercules, Calif.). Monoclonal PAI-1 antibody was obtained from BD Pharmingen. PSMAD2, total SMAD2/3, p-ERK, p-AKT, and total AKT antibodies were obtained from Cell Signaling Technology. A monoclonal antibody against Arkadia was obtained from Abnova (Taiwan).\nDensitometric analysis was performed using the HP Scanjet 5590 and the Image J program (Image Processing and Analysis in Java, NIH Image Software). Bands were selected and the intensity values were normalized to those for GAPDH. The values are presented as fold-changes relative to control siRNA treated cells.\nThe clinical inhibitors As2O3, geldanamycin (17-AAG) (dissolved in dimethylsulfoxide [DMSO]), and MG132 (dissolved in DMSO) were obtained from Sigma-Aldrich (St. Louis, Mo.), Fisher Scientific (Pittsburgh, Pa.), and Alexis Biochemicals (Farmingdale, N.Y.), respectively. N-acetyl-L-cysteine (NAC; dissolved in media) and Bortezomib (PS-341; dissolved in DMSO) were obtained from Fisher Scientific. 3-Methyladenine (3-MA; dissolved in media) was obtained from MP Biomedicals (Solon, Ohio). Tiron (4,5-Dihydroxy-1,3-benzenedisulfonic acid, dissolved in media) was obtained from Fisher Scientific. zVAD-fmk (dissolved in DMSO) and bafilomycin A (dissolved in DMSO) was obtained from Axxora LLC (San Diego, Calif.). Bovine catalase was obtained from Sigma-Aldrich. HBED and Mn TBAP was obtained from ENZO Life Sciences (Farmingdale, N.Y.). Ovarian cells were plated in 6-well plates at 250,000 cells per well and grown in complete medium. The following day, the cells were treated with 5 μM MG132, As2O3 (between 2-50 μM), 17-AAG (between 2-50 μM), NAC (Fisher Scientific, between 25 μM to 1 mM), Tiron (between 25 μM to 1 mM), 3-MA (0.1 mM to 10 mM), or zVAD-fmk (25 μM to 100 μM). For control cells, DMSO (a final concentration of <0.5%) was added to compare appropriately to drugs dissolved in DMSO. After the appropriate incubation time (6 or 18 hours), cell lysates were collected, protein quantified, and SDS-PAGE/western analysis was performed. In addition, for selected studies, RNA was isolated, quantified, and used for qPCR analysis."}, "T80, HEY and SKOV3 cells": {"test_system": "T80, HEY and SKOV3 cells", "experiment": "Annexin V-propidium iodide apoptosis assay", "settings": "As2O3 treatment", "procedure": "For assessment of apoptosis, the Annexin V-propidium iodide staining kit (Calbiochem, San Diego, Calif.) was used according to the manufacturer's protocol. Briefly, cells were treated with As2O3 for 24 hours at which time both the floating and adherent cells (removed by trypsinization) were collected. Cells were resuspended in PBS followed by the addition of annexin V-FITC and propidium iodide. The samples were then analyzed by flow cytometry at the MD Anderson Cancer Center FACS Core Facility. The FITC and the propidium iodide signals were detected at 518 nm with FL1 and at 620 nm with FL2, respectively."}, "EVI1 and TGFβRII RNA": {"test_system": "EVI1 and TGFβRII RNA", "experiment": "qPCR of EVI1 and TGFβRII RNA levels", "settings": "5 μM As2O3, 18 hours", "procedure": "as §1\nEVI1 Exon III—(detects both EVI1 and MDS1/EVI1):\nas §2\nmRNA levels were determined using the One-Step-Plus Applied Biosystems Detection System or ABI PRISM 7700 Sequence Detection System using β-actin as a reference. […] 95° C. for 15 s followed by 60° C. for 1 min Using the correlative method, RNA-fold change in expression was calculated as Ct of gene—Ct of β-actin to generate ΔCt from which ΔCt of the normal sample was subtracted. […]\nThe clinical inhibitors As2O3, geldanamycin (17-AAG) (dissolved in dimethylsulfoxide [DMSO]), and MG132 (dissolved in DMSO) were obtained from Sigma-Aldrich (St. Louis, Mo.), Fisher Scientific (Pittsburgh, Pa.), and Alexis Biochemicals (Farmingdale, N.Y.), respectively. […] In addition, for selected studies, RNA was isolated, quantified, and used for qPCR analysis."}}, "data": [{"substance": "Arsenic trioxide [As2O3]", "values": [{"measurement": "effect on SnoN RNA", "setting": "SnoN RNA", "value": "little effect"}, {"measurement": "EVI1 and EVI1^Del190-515 protein expression", "setting": "[1]; 5 μM As2O3", "value": "reduced"}, {"measurement": "MDS1/EVI1 protein expression", "setting": "[1]; 5 μM As2O3", "value": "remained unchanged"}, {"measurement": "protein levels of EVI1 forms", "setting": "[1]; HEY and OVCA429, 18 hours, increasing doses", "value": "markedly decreased"}, {"measurement": "apoptotic percentage", "setting": "T80, HEY and SKOV3 cells; SKOV3 and HEY", "value": "< 20", "unit": "%"}, {"measurement": "apoptotic percentage", "setting": "T80, HEY and SKOV3 cells; T80 (low expressing EVI1 cell line)", "value": "> 80", "unit": "%"}, {"measurement": "decrease in EVI1 and TGFβRII RNA levels", "setting": "EVI1 and TGFβRII RNA", "value": "< 20", "unit": "%"}]}]}
